The source of these data is article PMC12040169 (PLOS Biology, 2025).

The structures appear in SMILES notation.

This series is described as follows: in vitro. Particulars: human, hela cells, % viability.

`CC1(C)[C@H](Cc2cc(CO)on2)C[C@@H]1NC(=O)C1CCCCC1` [CBK289235]: the viability at 28.5 h, 10 µM turned out to be 93.1%. For `COc1cccc(-c2nccc3ccn(CC(=O)N4CC=CCC4)c23)c1` [CBK284806], the viability at 28.5 h, 10 µM was 104%.

As to `O=C(Cc1cc(F)c(F)c(F)c1)Nc1cnccn1` [CBK161764], the viability at 28.5 h, 10 µM was 90.1%.

Regarding `Cc1ccc(NC(=O)C(=O)NCCCn2ccnc2)cc1Cl` [CBK264238], the viability at 28.5 h, 10 µM was found to be 92.2%.

On to `COc1ccc(C2NC(C(=O)O)CS2)c(OC)c1` (centres unmarked) [CBK260908], for which the viability at 28.5 h, 10 µM turned out to be 99.2%. As for `Cn1nccc1CN1CCCC(COc2ccc(F)cc2)C1` (centres unmarked) [CBK281899], the viability at 28.5 h, 10 µM came out at 95.2%.

`CC(=O)N1CCc2cc(NC(=O)C3CC4C=CC3C43CC3)ccc21` (centres unmarked) [CBK281472]: the viability at 28.5 h, 10 µM came out at 79.8%. In the case of `O=C(O)C1C2C=CC(C2)C1C(=O)N1CCc2ccccc21` (centres unmarked) [CBK286537] it was 85.2%; in that of `CC(=O)N1c2ccc(C(O)CN3CCSCC3)cc2CC1C` (centres unmarked) [CBK283143], 98.9%; in that of `O=C(CN1C(=O)COc2ccccc21)NCc1ccco1` [CBK269682], 94.8%. Regarding `CCNc1cncc(-c2ccc(C(N)=O)cc2)n1` [CBK065414], the viability at 28.5 h, 10 µM amounted to 96.2%. For `Cc1nc(C)c(C(=O)N2Cc3ccccc3C2)s1` [CBK200326], the viability at 28.5 h, 10 µM turned out to be 95.9%. In the case of `CN1CC(C(=O)N2CCCC(c3cc4cccnc4[nH]3)C2)CC1=O` (centres unmarked) [CBK284958] it was 92.5%; in that of `O=C(Nc1ccc(Cl)c(Cl)c1)c1cnc2sccn2c1=O` [CBK287449], 83.3%. To `Cc1cc(=O)oc2cc(Sc3sccc3[N+](=O)[O-])ccc12` [CBK002936] belongs 90.5%. In the case of `Cc1cc(NC(=O)c2cc(Cl)ccc2[N+](=O)[O-])nc2c1c(=O)oc1ccccc12` [CBK291248] it was 85.9%. Consider `O=C(CSc1ccc2nnc(-c3ccccc3)n2n1)Nc1nccs1` [CBK287516], for which the viability at 28.5 h, 10 µM came out at 98.6%. To `COc1ccc(C(=O)[C@@H]2CCCN(C(=O)OC(C)(C)C)C2)cc1` [CBK284308] belongs 98.7%; to `O=C1CC(c2ccco2)Cc2c1cnn2-c1ccccc1` (centres unmarked) [CBK287860], 95.8%. With `O=S(=O)(Nc1cc(C(F)(F)F)ccc1N1CCOCC1)c1ccc(-c2ccccn2)s1` [CBK062557], the viability at 28.5 h, 10 µM is 79.5%.

For `COc1ccc(C(NC(=O)CSCc2cccc(C(=O)O)c2)c2ccc(OC)cc2)cc1` [CBK296680], the viability at 28.5 h, 10 µM was found to be 97.6%. In the case of `O=C(NCCCn1ccnc1)Nc1cccc(Cl)c1` [CBK265458] it was 93.9%; in that of `Cc1cc(NC(=O)Cn2cc(Br)cn2)no1` [CBK305706], 102%; in that of `CC(=O)N(CN1C(=O)CCC1=O)C(CC(C)C)C(=O)O` (centres unmarked) [CBK286553], 87.7%. In the case of `O=C(O)c1ccc(N2C(=O)CC(c3ccccc3)CC2=O)cc1` [CBK291169] it was 87.3%; in that of `COc1ccccc1C(=O)N1CCN(c2nc3c(s2)c(C)nn3C)CC1` [CBK306836], 86.6%.

For the compound `COC(=O)c1cccc2c1[nH]c1ccccc12` [CBK001709], the viability at 28.5 h, 10 µM stood at 99.9%. In the case of `Fc1ccccc1-c1cn2ccnc2c(N2CCOCC2)n1` [CBK036584], the viability at 28.5 h, 10 µM worked out at 105%. In the case of `CC(C)(C)c1cc(NC(=O)CN2CCN(c3cccc(Cl)c3)CC2)on1` [CBK304525] it was 85.7%; in that of `Cc1ccc(NC(=O)OCCN2CCN(C)CC2)c(C)n1` [CBK200135], 106%. On to `Cc1ccc(-c2nsc(SCC(=O)c3ccc(Cl)cc3)n2)cc1` [CBK113177], for which the viability at 28.5 h, 10 µM was found to be 92.1%. In the case of `COc1ccccc1N1CCN(C(=O)c2ccc3c(c2)no[n+]3[O-])CC1` [CBK091510] it was 85%; in that of `Cc1c(C(C)N)cnn1-c1ccc(C#N)cc1` (centres unmarked) [CBK305869], 80.9%; in that of `CC(C)(C)OC(=O)N1CCCN(Cc2nc(-c3cccnc3)no2)CC1` [CBK305309], 97.2%.

With `CCOC(=O)N1CCN(Cn2nc(COc3ccccc3)n(C)c2=S)CC1` [CBK265148], the viability at 28.5 h, 10 µM was 97.4%. As for `CCn1nc(C)c(-c2cncn2CC(C)N2CCC(C)CC2)c1C` (centres unmarked) [CBK281593], the viability at 28.5 h, 10 µM came to 103%.

With `CN1CCC(N2CCN(C(=O)NCC3COc4ccccc4O3)CC2)CC1` (centres unmarked) [CBK155881], the viability at 28.5 h, 10 µM was 107%.

Turning to `COc1ccc([C@@]23CCC(N)C[C@@H]2N(C)CC3)cc1OC` (some centres unmarked) [CBK003576], the viability at 28.5 h, 10 µM turned out to be 114%. With `CC(=O)N1CCc2c(sc(NC(=O)c3ccccc3C)c2C#N)C1` [CBK304681], the viability at 28.5 h, 10 µM is 78.7%. For the compound `C=CCNC(=O)N[C@H]1CO[C@H]2[C@@H]1OC[C@H]2OC(=O)Nc1ccccc1` [CBK289466], the viability at 28.5 h, 10 µM worked out at 115%. Consider `Cc1cc(Br)ccc1NC(=O)C(=O)NC1CC1` [CBK269284], for which the viability at 28.5 h, 10 µM is 83.6%.

`O=C(Cn1cccn1)N1CCc2[nH]c3ccccc3c2C1` [CBK281839]: the viability at 28.5 h, 10 µM stood at 92.6%. In the case of `c1ccc2c(Sc3cnccn3)cccc2c1` [CBK085841], the viability at 28.5 h, 10 µM was 90.7%. To `N#Cc1ccc(-c2cnc(N)c(-c3ccc(NC(=O)CCN4CCCCC4)cc3)n2)cc1` [CBK116418] belongs 85%. In the case of `CN(C)S(=O)(=O)N1CCN(c2ccc([N+](=O)[O-])c(NC3C4CC5CC(C4)CC3C5)c2)CC1` (centres unmarked) [CBK268986] it was 102%; in that of `CCCC(CCC)NC(=O)c1ccc(-n2nc(C(=O)OCC)c(Cl)c2C)cc1` [CBK114323], 93.9%; in that of `Cc1ccsc1CN(C)C(=O)NC1CCCc2c1cnn2CCO` (centres unmarked) [CBK306349], 83%.

Consider `O=C(CSCc1c(F)cccc1Cl)NCc1ccccc1Cl` [CBK269155], for which the viability at 28.5 h, 10 µM amounted to 91.6%.

Take `O=C(NCC1(O)CCSCC1)c1cc2ccccc2[nH]1` [CBK305199]: the viability at 28.5 h, 10 µM turned out to be 94.9%. In the case of `CC(C)C(=O)N[C@@H](C)Cn1c(C(F)(F)F)cc2cccnc21` [CBK283231] it was 95.6%; in that of `CCN(CC)C(=O)C1CCCN(C(=O)NCc2ccc(Cl)c(Cl)c2)C1` (centres unmarked) [CBK156119], 98.8%. In the case of `FC(F)(F)c1nc2ccccc2nc1SCc1ccccc1` [CBK103732] it was 87%; in that of `OCC1CCCN1c1cncc(-c2ccc3ccccc3c2)n1` (centres unmarked) [CBK037197], 104%; in that of `Cc1nn(CCNC(=O)C2CC(=O)N(CC(C)C)C2)c(C)c1C` (centres unmarked) [CBK281630], 88%. As to `C(#Cc1ccc(-c2nc(-c3ccc(Sc4ccccc4)cc3)c(-c3ccc(Sc4ccccc4)cc3)[nH]2)cc1)c1ccccc1` [CBK261954], the viability at 28.5 h, 10 µM was 95.3%.

For the compound `Cc1cc(N2C(=O)c3ccc(Oc4ccc5c(c4)C(=O)N(c4cc(C)on4)C5=O)cc3C2=O)no1` [CBK266463], the viability at 28.5 h, 10 µM is 85.8%. In the case of `Nc1ncc(-c2ccccc2CO)nc1N1CCN(CCO)CC1` [CBK063404] it was 100%; in that of `Nc1ncc(-c2ccc(O)cc2)nc1N1CCN(CCO)CC1` [CBK063685], 105%; in that of `O=[N+]([O-])c1cc(F)ccc1Oc1cccc(Cl)c1Cl` [CBK002604], 112%.

With `O=S(=O)(/N=C/N1CCCC1)c1ccccc1` [CBK023272], the viability at 28.5 h, 10 µM turned out to be 89.4%. In the case of `CC1CCCN(Cc2c(C3CCCNC3)[nH]c3ncccc23)C1` (centres unmarked) [CBK285112] it was 70.3%; in that of `COc1ccc(C(=O)Nc2cc3ccccc3c(N3CCNCC3)n2)cc1` [CBK036344T], 91.2%. Turning to `CCCOc1ccc(C(=O)C(CN(CC)CC)Oc2ccccc2)cc1` (centres unmarked) [CBK011944C], the viability at 28.5 h, 10 µM was 94.7%. To `CCOC(=O)c1cnc(NS(=O)(=O)c2cccc(Cl)c2C)nc1C` [CBK004707] belongs 105%. Take `N#CCCn1cc(C(=O)N2CCCCC2)c(-c2cccc(Br)c2)n1` [CBK306202]: the viability at 28.5 h, 10 µM is 89.4%. On to `COc1ccc([C@@]23CC[C@@H](NC(=O)Nc4ccc(-c5csnn5)cc4)C[C@@H]2N(C)CC3)cc1OC` [CBK051163T], for which the viability at 28.5 h, 10 µM amounted to 95.3%. Consider `Cc1nn(C)cc1-c1cncn1CC1(N(C)C)CCC(C)CC1` (centres unmarked) [CBK281799], for which the viability at 28.5 h, 10 µM stood at 88.9%. In the case of `Cc1c(C(=O)C2=C(O)C(=O)N(Cc3cccnc3)C2c2ccncc2)cnn1-c1ccccc1` (centres unmarked) [CBK233899] it was 114%. Consider `O=C(Cc1cccc(O)c1)N1CCCC1c1nc2ccccc2[nH]1` (centres unmarked) [CBK282346], for which the viability at 28.5 h, 10 µM amounted to 91.9%. As to `Cc1ccnc(SCc2ccc(F)cc2Cl)n1` [CBK270290], the viability at 28.5 h, 10 µM worked out at 87.4%.

Turning to `CC(C)(C)C1=CC2=NC3(CCS(=O)(=O)CC3)[C@@H]3C[C@@H](O)[C@@H](O)[C@@H]3N2O1` [CBK303247], the viability at 28.5 h, 10 µM came to 92%. In the case of `CC1CCN(Cc2csc(NC(=O)CCn3c(-c4cccs4)n[nH]c3=S)n2)CC1` [CBK297892] it was 92.2%; in that of `COc1cc(C(=O)N2CCC3(CC2)CC(=O)c2cc(C)ccc2O3)cc(OC)c1C` [CBK167805], 99.6%.

With `COc1cccc([C@H]2CN(C(=O)c3ccccc3)[C@@H]3CCN(Cc4ccsc4)C[C@H]23)c1` [CBK285611], the viability at 28.5 h, 10 µM was found to be 104%. In the case of `CCc1c(C(=O)Nc2ccc3nc(C)cn3c2)cnc2cc(O)nn12` [CBK291178] it was 92.7%; in that of `COc1ccc2c(c1)C(NC(=O)C1CCCN(C)C1)CC(C)(C)O2` (centres unmarked) [CBK307631], 113%; in that of `COc1ccc(Oc2cc3n(c(=O)n2)CCc2cc(OC)c(OC)cc2-3)cc1` [CBK291177], 86.1%. To `CC(Oc1ccc(Cl)cc1)C(=O)Nc1ncccn1` (centres unmarked) [CBK288206] belongs 96.5%; to `CN(C)c1nc(NCc2ccccc2)nc(SCC(=O)Nc2ccccc2)n1` [CBK268810], 88.9%. As for `Cc1ccccc1C(=O)NCCNC(=O)c1cccnc1` [CBK269222], the viability at 28.5 h, 10 µM turned out to be 96.2%.

As usually defined, the viability is a read-out of living cells in per cent, often relative to untreated cells.
